In patent publication US8697691B2, “Alkyl 3-((2-amidoethyl)amino)-8-azabicyclo[3.2.1]octane-8-carboxylate analogs as selective M1 agonists and methods of making and using same” (Vanderbilt University, priority 2009, dated 2014):
Residue numbers refer to the chain shown, from its start. Read-outs that look alike come from different tables or passages of the source.

How the values were obtained:
rat M1 receptor = biological target: T1, rat M1 receptor (Rattus norvegicus, UniProt P08482); assay: Calcium mobilization assay, CHO-K1 cells stably expressing rat M1 (low throughput, Flexstation II); type: cell-based; conditions: for Emax: CHO-K1, read-out: Efficacy (% Max ACh)
T1 construct: host or cells: CHO-K1
T1 sequence (P08482 1-460): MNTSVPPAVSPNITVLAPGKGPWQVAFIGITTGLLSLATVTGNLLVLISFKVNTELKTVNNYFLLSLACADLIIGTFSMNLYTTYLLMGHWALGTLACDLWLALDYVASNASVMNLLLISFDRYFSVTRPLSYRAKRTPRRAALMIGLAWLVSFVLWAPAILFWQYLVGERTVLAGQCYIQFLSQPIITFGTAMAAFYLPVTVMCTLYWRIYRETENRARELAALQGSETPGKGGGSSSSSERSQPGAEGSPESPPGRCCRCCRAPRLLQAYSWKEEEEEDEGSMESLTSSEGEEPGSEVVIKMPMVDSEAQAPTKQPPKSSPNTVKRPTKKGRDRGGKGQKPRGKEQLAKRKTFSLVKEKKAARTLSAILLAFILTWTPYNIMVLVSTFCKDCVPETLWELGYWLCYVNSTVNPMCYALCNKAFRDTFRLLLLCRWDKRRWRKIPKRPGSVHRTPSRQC
Excerpt: (§1) Chinese hamster ovary (CHO-K1) cells stably expressing rat (r)M1 were purchased from the American Type Culture Collection and cultured according to their indicated protocol. CHO cells stably expressing human (h)M2, hM3, and hM5 were described previously (Levey et al., 1991); hM1 and hM4 cDNAs were purchased from Missouri S&T cDNA Resource; rM4 cDNA was provided by T. I. Bonner (National Institutes of Health, Bethesda, Md.). hM1, hM4, and rM4 cDNAs were used to stably transfect CHO-K1 cells purchased from the American Type Culture Collection using Lipofectamine2000. To make stable hM2, hM4 and rM4 cell lines for use in calcium mobilization assays, these cells also were stably transfected with a chimeric G-protein (Gqi5) (provided by B. R. Conklin, University of California, San Francisco) using Lipofectamine 2000. rM1, hM3, and hM5 cells were grown in Ham's F-12 medium containing 10% heat-inactivated fetal bovine serum (FBS), 20 mM HEPES, and 50 μg/mL G418 sulfate. hM2-Gqi5 and hM4-Gqi5 cells were grown in the same medium also containing 500 μg/mL Hygromycin B. Stable rM4-Gqi5 cells were grown in DMEM containing 10% heat-inactivated FBS, 20 mM HEPES, 400 μg/mL G418 sulfate, and 500 μg/mL Hygromycin B. The rat M1 Y381A orthosteric mutant receptor cDNA was generated using the Quik-Change site-directed mutagenesis kit (Stratagene) and verified by sequencing. CHO-K1 cells were stably transfected with this cDNA using Lipofectamine2000 and screened for expression based on calcium mobilization in response to the allosteric M1 agonist N-desmethylclozapine.
For low throughput measurement of agonist-evoked increases in intracellular calcium, CHO-K1 cells stably expressing muscarinic receptors were plated in 100 μL of growth medium at 5×10^4 (rM1, hM3, and hM5) or 6×10^4 cells per well (rM1 Y381A, hM2, and rM4) in Costar 96-well black-walled, tissue culture (TC)-treated, clear-bottom plates (Fisher). Cells were incubated overnight at 37° C. and 5% CO2. The next day, medium was removed from the cells, and they were incubated with 50 μL of 2 μM Fluo-4/acetoxymethyl ester (Invitrogen, Carlsbad, Calif.) prepared as a 2.3 mM stock in DMSO and mixed in a 1:1 ratio with 10% (w/v) Pluronic F-127 and diluted in assay buffer [HBSS (Invitrogen) supplemented with 20 mM HEPES and 2.5 mM probenecid, pH 7.4] for 1 h at 37° C. and 5% CO2. Dye was removed and replaced with 50 μL of assay buffer. For calcium fluorescence measurements, CRCs of compounds (50 μl, 2×) were added 19 s after the beginning of data collection via a Flexstation II (Molecular Devices, Sunnyvale, Calif.). Fluorescence imaging continued for a total of 130 s acquisition time using an excitation wavelength of 488 nm, an emission wavelength of 525 nm, and a cutoff wavelength of 515 nm. All of the peaks of the calcium response were normalized to the response to a maximally effective concentration of ACh (ECmax). These normalized peak calcium response values were fit using GraphPad Prism version 4.0 to a four-parameter logistic equation to determine EC50 values.

human M1 receptor = biological target: T2, human M1 receptor (Homo sapiens, UniProt P11229); assay: Calcium mobilization assay, CHO-K1 cells stably expressing hM1 (high throughput, FDSS 6000); type: cell-based; conditions: for Emax: CHO-K1, read-out: Efficacy (% Max ACh)
T2 construct: host or cells: CHO-K1
T2 sequence (P11229 1-460): T1 sequence (P08482 1-460) with V5A, S254T, S309P, K320R, G337A, V413I
Excerpt: as §1
For high throughput measurement of agonist-evoked increases in intracellular calcium, CHO-K1 cells stably expressing muscarinic receptors were plated in growth medium lacking G418 and hygromycin at 15,000 cells/20 μL/well (hM1, hM2-Gqi5, hM3, hM4-Gq15, and hM5) in Greiner 384-well black-walled, tissue culture (TC)-treated, clear-bottom plates (VWR). Cells were incubated overnight at 37° C. and 5% CO2. The next day, cells were washed using an ELX 405 (BioTek) with three washes (50 μL) of assay buffer then aspirated to 15 μL. Next, 5 μL of 8 μM Fluo-4/acetoxymethyl ester (Invitrogen, Carlsbad, Calif.) prepared as a 2.3 mM stock in DMSO and mixed in a 1:1 ratio with 10% (w/v) Pluronic F-127 and diluted in assay buffer was added to the wells and the cell plates were incubated for 45 min at 37° C. and 5% CO2. Dye was removed by washing with the ELX 405 (three 50 μL washes of assay buffer) then aspirated to 20 μL. Agonist and compound master plates were formatted in an 11 point CRC format (1:3 dilutions) in 100% DMSO with a starting concentration of 10 mM using the BRAVO liquid handler (Agilent). Test compound CRCs were then transferred to daughter plates ([…]) using the Echo acoustic plate reformatter (Labcyte, Sunnyvale, Calif.) and then diluted into assay buffer (40 μL) to a 2× stock using a Thermo Fisher Combi (Thermo Fisher Scientific, Waltham, Mass.). Calcium flux was measured using the Functional Drug Screening System (FDSS) 6000 (Hamamatsu Corporation, Tokyo, Japan) as an increase in the fluorescent static ratio. 20 μL of Agonist Compounds were applied to cells using the automated system of the FDSS 6000 at 4 s into the 300 s protocol and the data were collected at 1 Hz. Concentration-response curves were generated using a four-parameter logistical equation in XLfit curve fitting software (IDBS, Bridgewater, N.J.) for Excel (Microsoft, Redmond, Wash.) or Prism (GraphPad Software, Inc., San Diego, Calif.).

[1] = rat M1, agonist-evoked calcium mobilization in CHO-K1 cells, read-out: Potency (EC50)
[2] = human M1, agonist-evoked calcium mobilization in CHO-K1 cells, read-out: Potency (EC50)

Row | Structure (SMILES) | Emax (rat M1 receptor) | Emax (human M1 receptor) | further results
1 | CCOC(=O)N1C2CCC1CC(NCCNC(=O)c1ccccn1)C2 (stereo not shown) [Example 16, ethyl 3-{[2-(pyridin-2-ylformamido)ethyl]-amino}-8-azabicyclo[3.2.1]octane-8-carboxylate] | 22% |  | 
2 | CCOC(=O)N1C2CCC1CC(NCCNC(=O)c1ccc(Cl)cc1F)C2 (stereo not shown) [Example 17, ethyl 3-({2-[(4-chloro-2-fluorophenyl)formamido]-ethyl}amino)-8-azabicyclo[3.2.1]octane-8-carboxylate] | 20% |  | 
3 | CCOC(=O)N1C2CCC1CC(NCCNC(=O)c1ccccc1)C2 (stereo not shown) [Example 18, ethyl 3-{[2-(phenylformamido)ethyl]-amino}-8-azabicyclo[3.2.1]octane-8-carboxylate] | 103% |  | EC50 (rat M1 receptor): 67 nM
4 | CCOC(=O)N1C2CCC1CC(NCCNC(=O)Cc1ccccc1)C2 (stereo not shown) [Example 19, ethyl 3-{[2-(2-phenylacetamido)ethyl]-amino}-8-azabicyclo[3.2.1]octane-8-carboxylate] | 33% |  | 
5 | CCOC(=O)N1C2CCC1CC(NCCNC(=O)Cc1cccs1)C2 (stereo not shown) [Example 20, ethyl 3-({2-[2-(thiophen-2-yl)acetamido]ethyl}-amino)-8-azabicyclo[3.2.1]octane-8-carboxylate] | 51% |  | 
6 | CCOC(=O)N1C2CCC1CC(NCCNC(=O)c1c(F)cccc1F)C2 (stereo not shown) [Example 21, ethyl 3-({2-[(2,6-difluorophenyl)formamido]-ethyl}amino)-8-azabicyclo[3.2.1]octane-8-carboxylate] | 18% |  | EC50 (rat M1 receptor; [1]): 880 nM
7 | CCOC(=O)N1C2CCC1CC(NCCNC(=O)c1ccc(F)c(OC)c1)C2 (stereo not shown) [Example 22, ethyl 3-({2-[(4-fluoro-3-methoxyphenyl)formamido]-ethyl}amino)-8-azabicyclo[3.2.1]octane-8-carboxylate] | 12% |  | EC50 (rat M1 receptor; [1]): 1460 nM
8 | CCOC(=O)N1C2CCC1CC(NCCNC(=O)c1ccc(F)c(C(F)(F)F)c1)C2 (stereo not shown) [Example 23, ethyl 3-[(2-{[4-fluoro-3-(trifluoromethyl)phenyl]-formamido}ethyl)amino]-8-azabicyclo[3.2.1]octane-8-carboxylate] | 47% |  | EC50 (rat M1 receptor; [1]): 2720 nM
9 | CCOC(=O)N1C2CCC1CC(NCCNC(=O)c1ccc(Cl)cc1)C2 (stereo not shown) [Example 24] | 25% |  | EC50 (rat M1 receptor; [1]): 1070 nM
10 | CCOC(=O)N1C2CCC1CC(NCCNC(=O)c1ccccc1Cl)C2 (stereo not shown) [Example 25, ethyl 3-({2-[(2-chlorophenyl)formamido]-ethyl}amino)-8-azabicyclo[3.2.1]octane-8-carboxylate] | 80% |  | EC50 (rat M1 receptor; [1]): 112 nM
11 | CCOC(=O)N1[C@@H]2CC[C@H]1C[C@H](NCCNC(=O)N1CCCCC1)C2 [Example 28, ethyl 3((3-exo)-(2-(piperidine-1-carboxamido)ethyl)amino)-8-azabicyclo[3.2.1]octane-8-carboxylate] |  | 46% | EC50 (human M1 receptor; [2]): 700 nM
12 | COC(=O)N1C2CCC1CC(NCCNC(=O)c1ccccc1)C2 (stereo not drawn) [Example 29, methyl 3-((3-exo)-(2-benzamidoethyl)amino)-8-azabicyclo[3.2.1]octane-8-carboxylate] |  | 7% | 
13 | C=CCOC(=O)N1[C@@H]2CC[C@H]1C[C@H](NCCNC(=O)c1ccccc1)C2 [Example 30, allyl 3-((3-exo)-(2-benzamidoethyl)amino)-8-azabicyclo[3.2.1]octane-8-carboxylate] |  | 29% | 
14 | CCOC(=O)N1[C@@H]2CC[C@H]1C[C@H](NCCNC(=O)c1ccccc1C)C2 [Example 31, ethyl 3-((3-exo)-(2-(2-methylbenzamido)ethyl)-amino)-8-azabicyclo[3.2.1]octane-8-carboxylate] |  | 38% | EC50 (human M1 receptor): 2500 nM
15 | CCOC(=O)N1C2CCC1CC(NCCNC(=O)N1[C@H](C)CCC[C@@H]1C)C2 (stereo partly shown) [Example 32] |  | 26% | 
16 | CCOC(=O)N1[C@@H]2CC[C@H]1C[C@H](NCCNC(=O)c1ccc(F)cc1)C2 [Example 33, ethyl 3-((3-exo)-(2-(4-fluorobenzamido)ethyl)-amino)-8-azabicyclo[3.2.1]octane-8-carboxylate] |  | 48% | EC50 (human M1 receptor; [2]): 1700 nM
17 | CCOC(=O)N1[C@@H]2CC[C@H]1C[C@H](NCCNC(=O)C1CCCCC1)C2 [Example 34, ethyl 3-((3-exo)-(2-(cyclohexanecarboxamido)-ethyl)amino)-8-azabicyclo[3.2.1]octane-8-carboxylate] |  | 25% | EC50 (human M1 receptor; [2]): 3200 nM
18 | CCOC(=O)N1[C@@H]2CC[C@H]1C[C@H](NCCNC(=O)c1cccc(Cl)c1)C2 [Example 35, ethyl 3-((3-exo)-(2-(3-chlorobenzamido)ethyl)-amino)-8-azabicyclo[3.2.1]octane-8-carboxylate] |  | 57% | EC50 (human M1 receptor; [2]): 490 nM
19 | CCOC(=O)N1[C@@H]2CC[C@H]1C[C@H](NCCNC(=O)c1cc(F)cc(F)c1)C2 [Example 36, ethyl 3-((3-exo)-(2-(3,5-difluorobenzamido)ethyl)-amino)-8-azabicyclo[3.2.1]octane-8-carboxylate] |  | 37% | EC50 (human M1 receptor; [2]): 2600 nM
